# Results as given in PubChem BioAssay (NCI).
#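 Grown in 96-well plates, cells were treated for 48 hours with each compound at five concentrations. Insufficient inhibition: endpoint recorded as highest concentration tested. At the GI50, growth is halved. TGI: total growth inhibition.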
# Legend:
# Experiment in all cases: growth of human tumour cells (NCI), 48 h
# MOLT-4 leukemia = test system: MOLT-4 leukemia
# SK-OV-3 ovarian = test system: SK-OV-3 ovarian
# KM12 colon = test system: KM12 colon
# T-47D breast = test system: T-47D breast
# M14 melanoma = test system: M14 melanoma
# HT29 colon = test system: HT29 colon
# SN12C renal = test system: SN12C renal
# SW-620 colon = test system: SW-620 colon
# UACC-62 melanoma = test system: UACC-62 melanoma
# OVCAR-4 ovarian = test system: OVCAR-4 ovarian
# SNB-19 CNS = test system: SNB-19 CNS
# IGROV1 ovarian = test system: IGROV1 ovarian
# EKVX NSCLC = test system: EKVX NSCLC
# DU-145 prostate = test system: DU-145 prostate
# SNB-75 CNS = test system: SNB-75 CNS
# PC-3 prostate = test system: PC-3 prostate
# NCI-H460 lung = test system: NCI-H460 lung
# HCT-116 colon = test system: HCT-116 colon
# LOX IMVI melanoma = test system: LOX IMVI melanoma
# ACHN renal = test system: ACHN renal
# NCI-H226 lung = test system: NCI-H226 lung
# U251 CNS = test system: U251 CNS
# RXF 393 renal = test system: RXF 393 renal
# RPMI-8226 leukemia = test system: RPMI-8226 leukemia
# SR leukemia = test system: SR leukemia
# HCC-2998 colon = test system: HCC-2998 colon
# OVCAR-5 ovarian = test system: OVCAR-5 ovarian
# NCI-H522 lung = test system: NCI-H522 lung
# MDA-MB-435 = test system: MDA-MB-435
smiles,measurement,setting,value
COc1cc(NCCCCCN=C(N)N)c2ncccc2c1,GI50,MOLT-4 leukemia,4.53 µM
same,TGI,MOLT-4 leukemia,> 74.4 µM
same,GI50,SK-OV-3 ovarian,60 µM
same,TGI,SK-OV-3 ovarian,> 100 µM
same,GI50,KM12 colon,2.04 µM
same,TGI,KM12 colon,14.5 µM
same,GI50,T-47D breast,1.07 µM
same,TGI,T-47D breast,6.98 µM
same,GI50,M14 melanoma,17.7 µM
same,TGI,M14 melanoma,54.1 µM
same,GI50,HT29 colon,5.97 µM
same,TGI,HT29 colon,> 80.7 µM
same,GI50,SN12C renal,3.57 µM
same,TGI,SN12C renal,13.7 µM
same,GI50,SW-620 colon,4.97 µM
same,TGI,SW-620 colon,> 100 µM
same,GI50,UACC-62 melanoma,7.2 µM
same,TGI,UACC-62 melanoma,24 µM
same,GI50,OVCAR-4 ovarian,0.043 µM
same,TGI,OVCAR-4 ovarian,0.953 µM
same,GI50,SNB-19 CNS,5.62 µM
same,TGI,SNB-19 CNS,30.3 µM
same,GI50,IGROV1 ovarian,1.03 µM
same,TGI,IGROV1 ovarian,> 36 µM
same,GI50,EKVX NSCLC,4.79 µM
same,TGI,EKVX NSCLC,> 50.5 µM
same,GI50,DU-145 prostate,35.1 µM
same,TGI,DU-145 prostate,> 100 µM
same,GI50,SNB-75 CNS,3.25 µM
same,TGI,SNB-75 CNS,16.6 µM
same,GI50,PC-3 prostate,3.47 µM
same,TGI,PC-3 prostate,> 49.6 µM
same,GI50,NCI-H460 lung,7.09 µM
same,TGI,NCI-H460 lung,> 57.5 µM
same,GI50,HCT-116 colon,2.74 µM
same,TGI,HCT-116 colon,> 63.5 µM
same,GI50,LOX IMVI melanoma,8.21 µM
same,TGI,LOX IMVI melanoma,> 56.1 µM
same,GI50,ACHN renal,41.5 µM
same,TGI,ACHN renal,> 100 µM
same,GI50,NCI-H226 lung,16.8 µM
same,TGI,NCI-H226 lung,> 100 µM
same,GI50,U251 CNS,3.23 µM
same,TGI,U251 CNS,25.8 µM
same,GI50,RXF 393 renal,24.9 µM
same,TGI,RXF 393 renal,> 94.7 µM
same,GI50,RPMI-8226 leukemia,5.45 µM
same,TGI,RPMI-8226 leukemia,33.5 µM
same,GI50,SR leukemia,6.28 µM
same,TGI,SR leukemia,40.6 µM
same,GI50,HCC-2998 colon,3.97 µM
same,TGI,HCC-2998 colon,> 33.9 µM
same,GI50,OVCAR-5 ovarian,5.73 µM
same,TGI,OVCAR-5 ovarian,30 µM
same,GI50,NCI-H522 lung,0.369 µM
same,TGI,NCI-H522 lung,4.85 µM
same,GI50,MDA-MB-435,16.7 µM
same,TGI,MDA-MB-435,42.3 µM
